Each structure is given as a SMILES string. Converted amounts (≈) assume the structure as drawn. The source made the active and inactive calls. No cut-off for these calls is given here.

Experimental findings from ChEMBL document CHEMBL1159195, “Purine and nucleoside metabolites from the Antarctic sponge Isodictya erinacea” (1998) are described below.

Experiment [1] has as its system Perknaster fuscus. In words: Deterrent activity against Perknaster fuscus assessed as induction of sustained retractions of tube-feet by sea-star deterrent assay. The class given is functional, organism-based.
Experiment [2] deals with L5178Y. As to the kind of experiment: Cytotoxicity against mouse L5178Y cells by trypan blue exclusion method. Particulars: read-out: LD50 (the source's name). The class given is functional.
The test system of experiment [3] is Escherichia coli. As to the kind of experiment: Antimicrobial activity against […] coli at 120 ug/disk after 48 hrs by paper disk method. The class given is functional, organism-based.
For experiment [4], the system named is Staphylococcus epidermidis. In words: Antimicrobial activity against Staphylococcus epidermidis at 120 ug/disk after 48 hrs by paper disk method. The class given is functional, organism-based.
Experiment [5] deals with Staphylococcus aureus. In words: Antimicrobial activity against Staphylococcus aureus at 120 ug/disk after 48 hrs by paper disk method. The class given is functional, organism-based.

In the case of `O=c1ccn([C@@H]2O[C@H](CO)[C@@H](O)[C@H]2O)c(=O)[nH]1`, the result in experiment [1] was inactive. With `O=c1[nH]cnc2c1ncn2[C@@H]1O[C@H](CO)[C@@H](O)[C@H]1O`, the outcome in experiment [1] was inactive. On the same count and under the same terms, next, `Cn1cnc2ncnc(N)c21`: “inactive”. `Nc1ccn([C@H]2C[C@H](O)[C@@H](CO)O2)c(=O)n1`: the result in experiment [1] was inactive.

Turning to `Cn1c(N)nc2c(ncn2C)c1=O`, in experiment [1], the outcome was inactive. Turning to `O=C(O)CCNc1ncnc2[nH]c(=O)[nH]c12` [ERINACEAN], the result in experiment [1] was inactive. Also, the CC50 in experiment [2] worked out at 50 µg/mL (≈ 224 µM). The outcome in experiment [3], in experiment [4] and in experiment [5] was Active. Consider `O=Cc1ccc(O)cc1`, for which the outcome in experiment [1] was Active.
